The values that follow come from PubChem BioAssay AID220 (DTP/NCI, 2004).

The test system of the assay is CD8F1 mice, subcutaneous mammary adenocarcinoma, T/C%. Nature of the assay: NCI In Vivo Anticancer Drug Screen. Data for tumor model Mammary Adenocarcinoma CD8F1 (subcutaneous) in CD8F1. Particulars: higher = larger tumour. In outline:
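Ratio of treated to vehicle-control outcome, based on either survival or tumor size, in mice bearing transplantable tumors given the test compound.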

Where [1] appears, read: endpoint: median tumor weight (est.), dose: 0.75 mg/kg/injection, schedule: Q07DX005 (ip), vehicle: saline with Tween-80.
[2] abbreviates: endpoint: median tumor weight (est.), dose: 1.5 mg/kg/injection, schedule: Q07DX005 (ip), vehicle: saline with Tween-80.
The mark [3] stands for this setting: endpoint: median tumor weight (est.), dose: 3.0 mg/kg/injection, schedule: Q07DX005 (ip), vehicle: saline with Tween-80.
Where [4] appears, read: endpoint: median tumor weight (est.), dose: 6.0 mg/kg/injection, schedule: Q07DX005 (ip), vehicle: saline with Tween-80.
Where [5] appears, read: endpoint: median tumor weight (est.), dose: 12.0 mg/kg/injection, schedule: Q07DX005 (ip), vehicle: saline with Tween-80.
[6] abbreviates: endpoint: median tumor weight change, dose: 100.0 mg/kg/injection, schedule: Q01DX001 (ip), vehicle: saline.
Setting [7] is: endpoint: median tumor weight change, dose: 200.0 mg/kg/injection, schedule: Q01DX001 (ip), vehicle: saline.

Where “and” joins values, the source holds several entries; their conditions need not be identical. Equal values may be shown once. Records with an inconclusive call do not appear.

Turning to `CCCCCCCCCCS(=O)CC(CO)NC(=O)/C=C/c1c(C)[nH]c(=O)[nH]c1=O` (stereo not given), the T/C was 85 % of control under setting [1]; 100 % of control and 106 % of control under setting [2]; 124 % of control and 113 % of control under setting [3]; 76 % of control under setting [4]; 23 % of control under setting [5]; 76 % of control (endpoint: median tumor weight (est.), dose: 48.0 mg/kg/injection, schedule: Q07DX005 (ip), vehicle: saline with Tween-80).

In the case of `C/C=C/C1=CC(=O)C(O)C1O` (stereo not given), the T/C (endpoint: median tumor weight (est.), dose: 45.0 mg/kg/injection, schedule: Q07DX005 (ip), vehicle: water) is 122 % of control; the T/C (endpoint: median tumor weight (est.), dose: 90.0 mg/kg/injection, schedule: Q07DX005 (ip), vehicle: water) was 78 % of control; the T/C (endpoint: median tumor weight (est.), dose: 180.0 mg/kg/injection, schedule: Q07DX005 (ip), vehicle: water) is 107 % of control.

Turning to `COc1ccc2c(NCCCCCCNc3c4ccccc4nc4cc(OC)ccc34)c3ccccc3nc2c1`, the T/C reads like this: (endpoint: median tumor weight (est.), dose: 1.25 mg/kg/injection, schedule: Q07DX005 (ip), vehicle: lactic acid) 77 % of control; (endpoint: median tumor weight (est.), dose: 2.5 mg/kg/injection, schedule: Q07DX005 (ip), vehicle: lactic acid) 175 % of control; (endpoint: median tumor weight (est.), dose: 5.0 mg/kg/injection, schedule: Q07DX005 (ip), vehicle: lactic acid) 52 % of control.

In the case of `CCOC(=O)C(N)CSC(=O)NC` (stereo not given), the T/C by setting is: under setting [6], 115 % of control; under setting [7], 81 % of control; (endpoint: median tumor weight change, dose: 250.0 mg/kg/injection, schedule: Q01DX001 (ip), vehicle: saline) 91 % of control and 111 % of control; (endpoint: median tumor weight change, dose: 400.0 mg/kg/injection, schedule: Q01DX001 (ip), vehicle: saline) 86 % of control; (endpoint: median tumor weight change, dose: 500.0 mg/kg/injection, schedule: Q01DX001 (ip), vehicle: saline) 53 % of control and 74 % of control; (endpoint: median tumor weight change, dose: 800.0 mg/kg/injection, schedule: Q01DX001 (ip), vehicle: saline) 96 % of control.

On to `CC(=O)O[C@H]1C(=O)[C@@]2(C)[C@H]([C@H](OC(=O)c3ccccc3)[C@]3(O)C[C@H](OC(=O)[C@H](O)[C@@H](NC(=O)c4ccccc4)c4ccccc4)C(C)=C1C3(C)C)[C@]1(OC(C)=O)CO[C@@H]1C[C@@H]2O`, for which, under “endpoint: median tumor weight (est.), dose: 15.0 mg/kg/injection, schedule: Q07DX005 (ip), vehicle: Klucel (hydroxypropylcellulose) (HPC)”, the T/C was 57 % of control.

Regarding `Brc1ccc(C[N+]23CN4CN(CN(C4)C2)C3)cc1`, the T/C is 90 % of control (endpoint: median tumor weight (est.), dose: 25.0 mg/kg/injection, schedule: Q07DX005 (ip), vehicle: saline with Tween-80); 96 % of control (endpoint: median tumor weight (est.), dose: 50.0 mg/kg/injection, schedule: Q07DX005 (ip), vehicle: saline with Tween-80); 180 % of control (endpoint: median tumor weight (est.), dose: 100.0 mg/kg/injection, schedule: Q07DX005 (ip), vehicle: saline with Tween-80).

Consider `CC1(C)N=C(N)N=C(N)N1c1ccc(CCCCc2ccc(S(=O)(=O)F)cc2Cl)c(Cl)c1`, for which the T/C is, setting by setting: (endpoint: median tumor weight (est.), dose: 12.5 mg/kg/injection, schedule: Q07DX005 (ip), vehicle: other) 95 % of control; (endpoint: median tumor weight (est.), dose: 12.5 mg/kg/injection, schedule: Q07DX005 (ip), vehicle: saline) 42 % of control; (endpoint: median tumor weight (est.), dose: 12.5 mg/kg/injection, schedule: Q07DX005 (ip), vehicle: suspension in saline) 114 % of control; (endpoint: median tumor weight (est.), dose: 25.0 mg/kg/injection, schedule: Q07DX005 (ip), vehicle: saline) 60 % of control; (endpoint: median tumor weight (est.), dose: 25.0 mg/kg/injection, schedule: Q07DX005 (ip), vehicle: suspension in saline) 105 % of control; (endpoint: median tumor weight (est.), dose: 50.0 mg/kg/injection, schedule: Q07DX005 (ip), vehicle: saline) 39 % of control. The T/C is, setting by setting: (endpoint: median tumor weight (est.), dose: 50.0 mg/kg/injection, schedule: Q07DX005 (ip), vehicle: suspension in saline) 46 % of control; (endpoint: median tumor weight (est.), dose: 100.0 mg/kg/injection, schedule: Q07DX005 (ip), vehicle: saline) 20 % of control; (endpoint: median tumor weight (est.), dose: 100.0 mg/kg/injection, schedule: Q07DX005 (ip), vehicle: suspension in saline) 26 % of control; (endpoint: median tumor weight (est.), dose: 200.0 mg/kg/injection, schedule: Q07DX005 (ip), vehicle: saline) 5 % of control; (endpoint: median tumor weight (est.), dose: 200.0 mg/kg/injection, schedule: Q07DX005 (ip), vehicle: suspension in saline) 2 % of control; (endpoint: median tumor weight change, dose: 90.0 mg/kg/injection, schedule: Q01DX001 (ip), vehicle: saline with Tween-80) 50 % of control. Also, the T/C (endpoint: median tumor weight change, dose: 100.0 mg/kg/injection, schedule: Q01DX001 (ip), vehicle: saline with Tween-80) is 53 % of control; the T/C (endpoint: median tumor weight change, dose: 112.5 mg/kg/injection, schedule: Q01DX001 (ip), vehicle: saline with Tween-80) was 84 % of control; the T/C (endpoint: median tumor weight change, dose: 133.0 mg/kg/injection, schedule: Q01DX001 (ip), vehicle: saline with Tween-80) was 64 % of control; the T/C (endpoint: median tumor weight change, dose: 200.0 mg/kg/injection, schedule: Q01DX001 (ip), vehicle: saline with Tween-80) is 12 % of control and 25 % of control; the T/C (endpoint: median tumor weight change, dose: 225.0 mg/kg/injection, schedule: Q01DX001 (ip), vehicle: saline with Tween-80) is 49 % of control; the T/C (endpoint: median tumor weight change, dose: 300.0 mg/kg/injection, schedule: Q01DX001 (ip), vehicle: saline with Tween-80) is 27 % of control. Also, the T/C (endpoint: median tumor weight change, dose: 450.0 mg/kg/injection, schedule: Q01DX001 (ip), vehicle: saline with Tween-80) is 12 % of control.

Take `C[N+](C)(C)c1cc2c(nn1)Nc1ccccc1S2`: the T/C runs as follows: (endpoint: median tumor weight (est.), dose: 12.5 mg/kg/injection, schedule: Q07DX005 (ip), vehicle: Klucel (hydroxypropylcellulose) (HPC)) 86 % of control; (endpoint: median tumor weight (est.), dose: 25.0 mg/kg/injection, schedule: Q07DX005 (ip), vehicle: Klucel (hydroxypropylcellulose) (HPC)) 106 % of control; (endpoint: median tumor weight (est.), dose: 50.0 mg/kg/injection, schedule: Q07DX005 (ip), vehicle: Klucel (hydroxypropylcellulose) (HPC)) 107 % of control; (endpoint: median tumor weight (est.), dose: 100.0 mg/kg/injection, schedule: Q07DX005 (ip), vehicle: Klucel (hydroxypropylcellulose) (HPC)) 116 % of control.

`O=C1NC(=O)NC(C(=O)O)N1`: the T/C is, setting by setting: (endpoint: median tumor weight change, dose: 12.0 mg/kg/injection, schedule: Q01DX001 (ip), vehicle: DMSO) 79 % of control; (endpoint: median tumor weight change, dose: 25.0 mg/kg/injection, schedule: Q01DX001 (ip), vehicle: DMSO) 104 % of control; (endpoint: median tumor weight change, dose: 50.0 mg/kg/injection, schedule: Q01DX001 (ip), vehicle: DMSO) 79 % of control; (endpoint: median tumor weight change, dose: 75.0 mg/kg/injection, schedule: Q01DX001 (ip), vehicle: DMSO) 83 % of control; (endpoint: median tumor weight change, dose: 100.0 mg/kg/injection, schedule: Q01DX001 (ip), vehicle: DMSO) 73 % of control; (endpoint: median tumor weight change, dose: 150.0 mg/kg/injection, schedule: Q01DX001 (ip), vehicle: DMSO) 96 % of control. Moreover, the T/C reads like this: (endpoint: median tumor weight change, dose: 200.0 mg/kg/injection, schedule: Q01DX001 (ip), vehicle: DMSO) 83 % of control; (endpoint: median tumor weight change, dose: 300.0 mg/kg/injection, schedule: Q01DX001 (ip), vehicle: DMSO) 86 % of control; (endpoint: median tumor weight change, dose: 400.0 mg/kg/injection, schedule: Q01DX001 (ip), vehicle: DMSO) 56 % of control; (endpoint: median tumor weight change, dose: 600.0 mg/kg/injection, schedule: Q01DX001 (ip), vehicle: DMSO) 80 % of control.

Regarding `O=P(O)(NCCCl)NCCCl`, the T/C is, setting by setting: (endpoint: median tumor weight change, dose: 25.0 mg/kg/injection, schedule: Q01DX001 (ip), vehicle: saline) 49 % of control; (endpoint: median tumor weight change, dose: 50.0 mg/kg/injection, schedule: Q01DX001 (ip), vehicle: saline) 97 % of control; (endpoint: median tumor weight change, dose: 50.0 mg/kg/injection, schedule: Q01DX001 (ip), vehicle: suspension in saline) -39 % of control; under setting [6], 41 % of control; under setting [7], -56 % of control.

As to `CC12CCC3C(CCC4CC(OC(=O)Cc5ccc(N(CCCl)CCCl)cc5)CCC43C)C1CCC(=O)N2` (stereo not given), the T/C was 63 % of control under setting [1]; 109 % of control under setting [2]; 91 % of control (endpoint: median tumor weight (est.), dose: 3.0 mg/kg/injection, schedule: Q07DX005 (ip), vehicle: Klucel (hydroxypropylcellulose) (HPC)); 99 % of control under setting [3]; 41 % of control (endpoint: median tumor weight (est.), dose: 6.0 mg/kg/injection, schedule: Q07DX005 (ip), vehicle: Klucel (hydroxypropylcellulose) (HPC)); 55 % of control under setting [4]. Further, the T/C (endpoint: median tumor weight (est.), dose: 12.0 mg/kg/injection, schedule: Q07DX005 (ip), vehicle: Klucel (hydroxypropylcellulose) (HPC)) was 30 % of control; the T/C under setting [5] is 12 % of control; the T/C (endpoint: median tumor weight (est.), dose: 24.0 mg/kg/injection, schedule: Q07DX005 (ip), vehicle: Klucel (hydroxypropylcellulose) (HPC)) is 8 % of control; the T/C (endpoint: median tumor weight (est.), dose: 24.0 mg/kg/injection, schedule: Q07DX005 (ip), vehicle: saline with Tween-80) is 1 % of control.
